Counter-ions that a name gives are not always drawn.
molecular target: T1, h5-HT5A receptor (Homo sapiens, UniProt P47898); test: h5-HT5A-[3H]5-CT binding assay; conditions: membranes of HEK293 cells expressing h5-HT5A; 2.5 nM [3H]5-CT; read-out: Binding affinity 5-HT5A (Ki)
T1 construct: expressed in transfected cells
Description: 1. h5-HT5A-[^3H]5-CT Binding Assay
Membranes of HEK293 cells which permanently express the h5-HT5A receptor gene were incubated in 100 mM tris-HCl buffer (pH 7.7) containing 1 mM EDTA, in the presence of 2.5 nM [^3H]5-CT (total volume 600 μL). The total binding is defined as the binding that is observed when the membranes are incubated in the presence of only the radioligand. The inhibition induced by the compound is determined by incubation of cell membranes in the presence of the radioligand and various concentrations of the compound of interest. Nonspecific binding is defined as the [^3H]5-CT binding obtained by incubation of the membranes, the same as for the total binding, but in the presence of 10 μM methiothepine. Following incubation for 75 min at 30° C., the membrane suspension was filtered through a GF/B-Filter coated with 0.03% PEI, using a Skatron® harvesting system. The residual radioactivity in the filter was quantified by liquid scintillation counting.
Various concentrations of the test substances were used in both assays, and the Ki or IC50 values were determined.

T1 sequence (P47898 whole entry): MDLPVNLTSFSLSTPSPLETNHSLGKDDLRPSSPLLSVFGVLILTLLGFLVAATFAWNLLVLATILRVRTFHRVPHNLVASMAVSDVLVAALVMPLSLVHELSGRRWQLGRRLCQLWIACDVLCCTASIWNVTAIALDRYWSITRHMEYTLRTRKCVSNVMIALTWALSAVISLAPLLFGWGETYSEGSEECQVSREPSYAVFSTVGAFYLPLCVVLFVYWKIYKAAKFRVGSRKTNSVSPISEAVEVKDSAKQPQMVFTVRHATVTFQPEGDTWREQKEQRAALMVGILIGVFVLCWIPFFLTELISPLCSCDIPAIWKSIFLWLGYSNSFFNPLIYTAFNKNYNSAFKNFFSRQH

Row | SMILES | Ki [nM]
1 | COc1ccccc1Cn1cc(-c2nccs2)nc1N [Example 49, 1-(2-Methoxybenzyl)-4-thiazole-2-yl-1H-imidazole-2-ylamine hydrochloride] | < 600
2 | COc1ccccc1Cn1cc(-c2cccnc2)nc1N [Example 61, 1-(2-Methoxybenzyl)-4-pyridine-3-yl-1H-imidazole-2-ylamine] | < 600
3 | COc1ccccc1Cn1cc(-c2cccc(NS(=O)(=O)C(C)C)c2)nc1N [Example 64, Propane-2-sulfonic acid {3-[2-amino-1-(2-methoxybenzyl)-1H-imidazole-4-yl]phenyl}amide] | < 600
4 | COc1ccccc1-c1cn(Cc2c(OC)cccc2OC)c(N)n1 [Example 26, 1-(2,6-Dimethoxybenzyl)-4-(2-methoxyphenyl)-1H-imidazole-2-ylamine hydrochloride] | < 600
5 | COc1cccc(Cl)c1Cn1cc(-c2ccsc2)nc1N [Example 28, 1-(2-Chloro-6-methoxybenzyl)-4-thiophene-3-yl-1H-imidazole-2-ylamine] | < 600
6 | COc1ccccc1Cn1cc(-c2ccc(OC(F)F)cc2)nc1N [Example 46, 4-(4-Difluoromethoxyphenyl)-1-(2-methoxybenzyl)-1H-imidazole-2-ylamine] | < 600
7 | CCOC(=O)c1cn(Cc2ccccc2OC)c(N)n1 [Example 21, 2-Amino-1-(2-methoxybenzyl)-1H-imidazole-4-carboxylic acid ethyl ester] | > 600
8 | COc1cccc(OC)c1Cn1cc(-c2ccc(F)cc2)nc1N [Example 18, 1-(2,6-Dimethoxybenzyl)-4-(4-fluorophenyl)-1H-imidazole-2-ylamine] | < 600
9 | COc1ccccc1Cn1cc(-c2ccc(C(C)C)cc2)nc1N [Example 39, 4-(4-Isopropylphenyl)-1-(2-methoxybenzyl)-1H-imidazole-2-ylamine] | < 600
10 | COc1ccccc1Cn1cc(-c2cccs2)nc1N [Example 13, 1-(2-Methoxybenzyl)-4-thiophene-2-yl-1H-imidazole-2-ylamine] | < 600
11 | COc1ccccc1Cn1cc(-c2cccc(NS(=O)(=O)c3cccs3)c2)nc1N [Example 60, Thiophene-2-sulfonic acid {3-[2-amino-1-(2-methoxybenzyl)-1H-imidazole-4-yl]phenyl}amide] | < 600
12 | COc1ccccc1Cn1cc(-c2ccc3ccccc3c2)nc1N [Example 16, 1-(2-Methoxybenzyl)-4-naphthalene-2-yl-1H-imidazole-2-ylamine hydrochloride] | < 600
13 | COc1ccccc1Cn1cc(-c2ccc(Br)cc2)nc1N [Example 1, 4-(4-Bromophenyl)-1-(2-methoxybenzyl)-1H-imidazole-2-ylamine] | < 600
14 | COc1ccccc1Cc1cn(-c2ccccc2)nc1N [Example 4, 4-(2-Methoxybenzyl)-1-phenyl-1H-pyrazole-3-ylamine] | > 600
15 | COc1cccc(OC)c1Cn1cc(-c2ccc(C)c(C)c2)nc1N [Example 40, 1-(2,6-Dimethoxybenzyl)-4-(3,4-dimethylphenyl)-1H-imidazole-2-ylamine hydrochloride] | < 600
16 | COc1ccccc1Cn1cc(-c2cccc(N)c2)nc1N [Example 51, 4-(3-Aminophenyl)-1-(2-methoxybenzyl)-1H-imidazole-2-ylamine] | < 600
17 | COc1ccccc1Cn1cc(C23CC4CC(CC(C4)C2)C3)nc1N [Example 24, 4-Adamantane-1-yl-1-(2-methoxybenzyl)-1H-imidazole-2-ylamine] | < 600
18 | COc1ccccc1Cn1cc(-c2ccc([N+](=O)[O-])cc2)nc1N [Example 2, 1-(2-Methoxybenzyl)-4-(4-nitrophenyl)-1H-imidazole-2-ylamine] | < 600
19 | COc1ccccc1Cn1cc(-c2ccccc2)nc1NC(C)=O [Example 9, N-[1-(2-Methoxybenzyl)-4-phenyl-1H-imidazole-2-yl]acetamide] | > 600
20 | COc1ccccc1Cn1cc(-c2cc3ccccc3o2)nc1N [Example 42, 4-Benzofuran-2-yl-1-(2-methoxybenzyl)-1H-imidazole-2-ylamine] | < 600
21 | COc1cccc(OC)c1Cn1cc(-c2cccs2)nc1N [Example 19, 1-(2,6-Dimethoxybenzyl)-4-thiophene-2-yl-1H-imidazole-2-ylamine] | < 600

Second part, the compound after the results:

Row | Ki [nM] | SMILES
22 | < 600 | COc1cccc(OC)c1Cn1cc(-c2ccccc2)nc1N [Example 8, 1-(2,6-Dimethoxybenzyl)-4-phenyl-1H-imidazole-2-ylamine hydrochloride]
23 | < 600 | COc1ccccc1Cn1cc(-c2cccc([N+](=O)[O-])c2)nc1N [Example 45, 1-(2-Methoxybenzyl)-4-(3-nitrophenyl)-1H-imidazole-2-ylamine]
24 | < 600 | COc1ccccc1Cn1cc(-c2cccc(NS(=O)(=O)c3ccccc3)c2)nc1N [Example 56, N-{3-[2-Amino-1-(2-methoxybenzyl)-1H-imidazole-4-yl]phenyl}benzenesulfonamide]
25 | < 600 | COc1ccccc1Cn1cc(-c2ccc(C)cc2)nc1N [Example 27, 1-(2-Methoxybenzyl)-4-p-tolyl-1H-imidazole-2-ylamine]
26 | < 600 | COc1ccccc1Cn1c(Cc2ccccc2)cnc1N [Example 41, 5-Benzyl-1-(2-methoxybenzyl)-1H-imidazole-2-ylamine]
27 | < 600 | COc1ccccc1Cn1cc(-c2ccc(Oc3ccccc3)cc2)nc1N [Example 44, 1-(2-Methoxybenzyl)-4-(4-phenoxyphenyl)-1H-imidazole-2-ylamine hydrochloride]
28 | < 600 | COc1ccccc1Cn1cc(-c2ccsc2)nc1N [Example 20, 1-(2-Methoxybenzyl)-4-thiophene-3-yl-1H-imidazole-2-ylamine hydrochloride]
29 | > 600 | COc1ccc(-n2cc(Cc3ccccc3OC)c(N)n2)cc1 [Example 6, 4-(2-Methoxybenzyl)-1-(4-methoxyphenyl)-1H-pyrazole-3-ylamine]
30 | < 600 | COc1ccccc1Cn1cc(-c2cccc(NS(C)(=O)=O)c2)nc1N [Example 57, N-{3-[2-Amino-1-(2-methoxybenzyl)-1H-imidazole-4-yl]phenyl}methanesulfonamide]
31 | < 600 | COc1ccccc1Cn1cc(-c2ccccc2)nc1N [Example 10, 1-(2-Methoxybenzyl)-4-phenyl-1H-imidazole-2-ylamine hydrochloride]
32 | < 600 | COc1cccc(Cl)c1Cn1cc(-c2ccc(OC(F)(F)F)cc2)nc1N [Example 29, 1-(2-Chloro-6-methoxybenzyl)-4-(4-trifluoromethoxyphenyl)-1H-imidazole-2-ylamine]
33 | < 600 | COc1ccccc1Cn1cc(-c2cccc(NS(=O)(=O)c3ccc(-c4ccccc4)cc3)c2)nc1N [Example 63, Biphenyl-4-sulfonic acid {3-[2-amino-1-(2-methoxybenzyl)-1H-imidazole-4-yl]phenyl}amide]
34 | > 600 | COc1ccccc1Cn1nc(-c2ccccc2)nc1N [Example 5, 2-(2-Methoxybenzyl)-5-phenyl-4H-[1,2,4]triazole-3-ylamine]
35 | > 600 | COc1cc([N+](=O)[O-])ccc1Cn1cc(-c2ccc(C#N)cc2)nc1N [Example 54, 4-[2-Amino-1-(2-methoxy-4-nitrobenzyl)-1H-imidazole-4-yl]benzonitrile]
36 | < 600 | COc1ccccc1Cn1cc(-c2ccc(C#N)s2)nc1N [Example 50, 5-[2-Amino-1-(2-methoxybenzyl)-1H-imidazole-4-yl]thiophene-2-carbonitrile]
37 | < 600 | COc1ccccc1Cn1cc(-c2ccc(OCc3ccccc3)cc2)nc1N [Example 48, 4-(4-Benzyloxyphenyl)-1-(2-methoxybenzyl)-1H-imidazole-2-ylamine]
38 | < 600 | COc1ccccc1Cn1cc(-c2csc3ccccc23)nc1N [Example 17, 4-Benzo[b]thiophene-3-yl-1-(2-methoxybenzyl)-1H-imidazole-2-ylamine hydrochloride]
39 | < 600 | COc1ccccc1Cn1cc(-c2ccc(N)cc2)nc1N [Example 53, 4-(4-Aminophenyl)-1-(2-methoxybenzyl)-1H-imidazole-2-ylamine hydrochloride]
40 | < 600 | COc1cccc(-c2cn(Cc3ccccc3OC)c(N)n2)c1 [Example 23, 1-(2-Methoxybenzyl)-4-(3-methoxyphenyl)-1H-imidazole-2-ylamine]
41 | < 600 | COc1cccc(Cl)c1Cn1cc(-c2ccc(Cl)cc2)nc1N [Example 34, 1-(2-Chloro-6-methoxybenzyl)-4-(4-chlorophenyl)-1H-imidazole-2-ylamine]
42 | > 600 | COc1ccccc1Cc1cn(-c2ccc(F)cc2)nc1N [Example 7, 1-(4-Fluorophenyl)-4-(2-methoxybenzyl)-1H-pyrazole-3-ylamine]
43 | > 600 | COc1ccccc1Cn1cc(C(C)(C)C)nc1N [Example 11, 4-tert-Butyl-1-(2-methoxybenzyl)-1H-imidazole-2-ylamine]
44 | < 600 | COc1ccccc1Cn1cc(-c2cccc(NC(=O)c3ccccc3)c2)nc1N [Example 58, N-{3-[2-Amino-1-(2-methoxybenzyl)-1H-imidazole-4-yl]phenyl}benzamide]
45 | < 600 | COc1ccccc1Cn1cc(-c2ccc(C)o2)nc1N [Example 36, 1-(2-Methoxybenzyl)-4-(5-methylfuran-2-yl)-1H-imidazole-2-ylamine]
46 | < 600 | COc1ccccc1Cn1cc(-c2ccc(NS(=O)(=O)c3ccccc3)cc2)nc1N [Example 59, N-{4-[2-Amino-1-(2-methoxybenzyl)-1H-imidazole-4-yl]phenyl}benzenesulfonamide]

Source: patent US8921406B2, “5-ring heteroaromatic compounds and their use as binding partners for 5-HT5 receptors” (AbbVie Deutschland GmbH & Co. KG, priority 2005, dated 2014)
